The subject of this assay is Plasmodium berghei. The experiment in a line: Luciferase/luciferin-expressing antifolate-resistant parasites were used to infect a culture of HepG2 cells that were pre-incubated with compounds. Infected hepatocytes emit light due to the luciferase reaction. Assay results are presented as the percent inhibition of light emission compared to control. […]. Type of assay: functional. The note with it: sporozoite; for IC90: read-out: LUCIFERASE INFECTION ASSAY - IC90.

Structures are written as SMILES. Bounds are passed on as bounds.

For orientation: IC50 means the midpoint of a concentration-inhibition curve. One may read the IC90 as the concentration at which the effect reaches the 90% level. In the case of `Oc1ccc(/C=C/c2ccc3cccc(O)c3n2)cc1Br`, the IC90 came out at 7.7 µM. Moreover, the IC50 (PBLUC_HILL_SLOPE 43.7, PBLUC_R_SQUARED 0.404, read-out: LUCIFERASE INFECTION ASSAY - IC50) amounted to 7.32 µM.

With `COc1cc(CNC2CCCC2)c(Br)cc1OC1CCCC1`, the 90% effect concentration (IC90) is greater than 8.15 µM. In addition, the IC50 (PBLUC_HILL_SLOPE 45, PBLUC_R_SQUARED 0.216, read-out: LUCIFERASE INFECTION ASSAY - IC50) turned out to be 8.1 µM.

In the case of `Nc1ncc(-c2ccc(-c3ccccc3)cc2F)cc1-c1ccccc1F`, the IC90 is greater than 9.21 µM. Also, under “PBLUC_HILL_SLOPE 34.9, PBLUC_R_SQUARED 0.254, read-out: LUCIFERASE INFECTION ASSAY - IC50”, the IC50 turned out to be 8.92 µM.

As for `O=C1c2ccccc2O[C@@H](c2ccc(Cl)cc2)[C@@H]1O`, the IC90 is greater than 12 µM. The IC50 (PBLUC_HILL_SLOPE 64.7, PBLUC_R_SQUARED 0.241, read-out: LUCIFERASE INFECTION ASSAY - IC50) stood at 12 µM.

As to `Cc1c(NC(=O)c2c(F)cccc2F)cc2c(c1[N+](=O)[O-])C(C)(C)CC2(C)C`, the IC90 was greater than 8.5 µM. The IC50 (PBLUC_HILL_SLOPE 39, PBLUC_R_SQUARED 0.724, read-out: LUCIFERASE INFECTION ASSAY - IC50) was greater than 8.5 µM.

Take `Cc1cc(N2CCN(CC(=O)N(C)C)CC2)nc2c(C(C)C)cccc12`: the IC90 stood at 6.13 µM. Further, under “PBLUC_HILL_SLOPE 64.7, PBLUC_R_SQUARED 0.2, read-out: LUCIFERASE INFECTION ASSAY - IC50”, the IC50 turned out to be 5.93 µM.

`CCCCN1C(=O)C(=O)N(CC(=O)Nc2sc(Cc3ccc4c(c3)OCO4)c(C)c2C(=O)OCC)C1=O`: the IC90 turned out to be 0.0425 µM. Further, the IC50 (PBLUC_HILL_SLOPE 37.8, PBLUC_R_SQUARED 0.839, read-out: LUCIFERASE INFECTION ASSAY - IC50) was 0.0401 µM.

Consider `Cc1nc(Sc2ncnc3sc4c(c23)CCC4)sc1CC(N)=O`, for which the IC90 was found to be 1.96 µM. Moreover, under “PBLUC_HILL_SLOPE 51.2, PBLUC_R_SQUARED 0.477, read-out: LUCIFERASE INFECTION ASSAY - IC50”, the IC50 is 1.88 µM.

`CCCn1c(NC(=O)C2CCCN2C(=O)C23CC4CC(CC(C4)C2)C3)nc2ccccc21` (configuration not stated): the IC90 turned out to be 9.69 µM. Also, the IC50 (PBLUC_HILL_SLOPE 41.1, PBLUC_R_SQUARED 0.0887, read-out: LUCIFERASE INFECTION ASSAY - IC50) was found to be 9.19 µM.

With `CN1CCN(c2nc(-c3c[nH]c4ccccc34)c(-c3ccccc3)s2)CC1`, the IC90 was greater than 10 µM. Moreover, the IC50 (PBLUC_HILL_SLOPE 45.6, PBLUC_R_SQUARED 0.243, read-out: LUCIFERASE INFECTION ASSAY - IC50) amounted to 9.92 µM.

On to `Cc1nc(NC(=O)c2cn3ccccc3n2)sc1Cc1ccc2c(c1)OCO2`, for which the IC90 came to 3.5 µM. In addition, the IC50 (PBLUC_HILL_SLOPE 53.8, PBLUC_R_SQUARED 0.294, read-out: LUCIFERASE INFECTION ASSAY - IC50) is 3.36 µM.

For the compound `COc1cccc(-c2cc3c(Nc4ccccc4)nccc3[nH]2)c1`, the IC90 was 3.51 µM. The IC50 (PBLUC_HILL_SLOPE 41.1, PBLUC_R_SQUARED 0.519, read-out: LUCIFERASE INFECTION ASSAY - IC50) turned out to be 3.33 µM.

For the compound `CC(C)CC(N)c1csc(NC(=O)Nc2ccc(OC(F)(F)F)cc2)n1` (configuration not stated), the IC90 was 5.1 µM. Further, where the note is “PBLUC_HILL_SLOPE 53.9, PBLUC_R_SQUARED 0.0664, read-out: LUCIFERASE INFECTION ASSAY - IC50”, the 50% inhibitory concentration (IC50) was 4.89 µM.

Turning to `COc1ccccc1C(=O)Nc1ccc2c(c1)nc(CCN1CCCC1)n2C`, the IC90 is greater than 8.72 µM. Moreover, for the setting “PBLUC_HILL_SLOPE 41.2, PBLUC_R_SQUARED 0.16, read-out: LUCIFERASE INFECTION ASSAY - IC50”, the IC50 was found to be 8.38 µM.

In the case of `CC(=O)Nc1cccc2c1CCN(c1ncnc3sccc13)C2`, the IC90 came out at 3.46 µM. Also, the IC50 (PBLUC_HILL_SLOPE 34.6, PBLUC_R_SQUARED 0.49, read-out: LUCIFERASE INFECTION ASSAY - IC50) came to 3.25 µM.

With `COc1cc(Br)cc(/C=N/NC(=S)NC(C)(C)C)c1O`, the IC90 turned out to be 6.76 µM. Besides, the IC50 (PBLUC_HILL_SLOPE 63.8, PBLUC_R_SQUARED 0.286, read-out: LUCIFERASE INFECTION ASSAY - IC50) was 6.53 µM.

Take `OC[C@H]1O[C@@H](c2nc3cc(-c4nc(-c5ccccc5F)no4)ccc3[nH]2)C[C@@H]1O`: the IC90 came out at 2.9 µM. The 50% inhibitory concentration (IC50) (PBLUC_HILL_SLOPE 37.1, PBLUC_R_SQUARED 0.287, read-out: LUCIFERASE INFECTION ASSAY - IC50) stood at 2.73 µM.

Take `Cc1nc(CSCC(=O)Nc2nc(-c3ccccn3)cs2)cs1`: the IC90 was greater than 10 µM. The IC50 (PBLUC_HILL_SLOPE 39.1, PBLUC_R_SQUARED 0.364, read-out: LUCIFERASE INFECTION ASSAY - IC50) is 9.84 µM.

As for `CN(C)S(=O)(=O)c1ccc(CNc2ccnc3cc(Cl)ccc23)s1`, the IC90 is 3.6 µM. Besides, the IC50 (PBLUC_HILL_SLOPE 38.6, PBLUC_R_SQUARED 0.0785, read-out: LUCIFERASE INFECTION ASSAY - IC50) was found to be 3.4 µM.

For `Cc1cc(-c2cc(C(=O)N3CCCN(C)c4nc5ccccc5nc43)c3c(C)noc3n2)c(C)s1`, the IC90 came out at 0.385 µM. Moreover, for the setting “PBLUC_HILL_SLOPE 42.2, PBLUC_R_SQUARED 0.606, read-out: LUCIFERASE INFECTION ASSAY - IC50”, the IC50 was 0.366 µM.

`CC(C)N(C(=O)CSc1ccc(F)c(F)c1)c1ccc(Nc2ccccc2)cc1`: the IC90 amounted to 6.35 µM. Moreover, the IC50 (PBLUC_HILL_SLOPE 46.2, PBLUC_R_SQUARED 0.0491, read-out: LUCIFERASE INFECTION ASSAY - IC50) was 6.06 µM.

Regarding `Cc1nn(C)c(NC(=O)c2ccc(Cl)cc2)c1Br`, the IC90 is greater than 10 µM. Besides, the IC50 (PBLUC_HILL_SLOPE 41, PBLUC_R_SQUARED 0.305, read-out: LUCIFERASE INFECTION ASSAY - IC50) was greater than 10 µM.

`COc1ncccc1C(=O)Nc1cc(Cl)cc(Cl)c1`: the IC90 was determined as 3.83 µM. Further, for the setting “PBLUC_HILL_SLOPE 56, PBLUC_R_SQUARED 0.566, read-out: LUCIFERASE INFECTION ASSAY - IC50”, the IC50 worked out at 3.68 µM.

On to `COc1ccc(Cl)cc1C(=O)NNC(=O)CSc1nccn1-c1ccc(C)c(C)c1`, for which the IC90 is 6.58 µM. The IC50 (PBLUC_HILL_SLOPE 46.1, PBLUC_R_SQUARED 0.54, read-out: LUCIFERASE INFECTION ASSAY - IC50) was determined as 6.27 µM.

Regarding `COc1ccc(C2CCCCCN2C(=O)CCc2c(C)[nH]c(-c3ccccc3)nc2=O)cc1` (configuration not stated), the IC90 was 3.45 µM. For the same compound, for the setting “PBLUC_HILL_SLOPE 57.7, PBLUC_R_SQUARED 0.487, read-out: LUCIFERASE INFECTION ASSAY - IC50”, the IC50 was 3.32 µM.

As to `NC(CCc1ccccc1)c1csc(NC(=O)Nc2ccccc2)n1` (configuration not stated), the IC90 was greater than 9.36 µM. The IC50 (PBLUC_HILL_SLOPE 42.7, PBLUC_R_SQUARED 0.194, read-out: LUCIFERASE INFECTION ASSAY - IC50) was determined as 9.14 µM.

With `CC(C)(C)c1ccc(-c2nnc(SCc3ccccc3Cl)n2-c2cccc(C(F)(F)F)c2)cc1`, the IC90 is greater than 6.57 µM. For the same compound, the IC50 (PBLUC_HILL_SLOPE 55, PBLUC_R_SQUARED 0.768, read-out: LUCIFERASE INFECTION ASSAY - IC50) came to 6.56 µM.

Consider `Cc1ccn2cc(C(=O)Nc3nc(C(C)C)cs3)nc2c1`, for which the IC90 is greater than 10 µM. Besides, the half-maximal inhibitory concentration (IC50) (PBLUC_HILL_SLOPE 42, PBLUC_R_SQUARED 0.63, read-out: LUCIFERASE INFECTION ASSAY - IC50) was determined as 9.53 µM.

`CCCNC(=O)c1c(NC(=O)c2ccc(OCC)cc2)nc2ccccn12`: the 90% effect concentration (IC90) stood at 8.98 µM. The IC50 (PBLUC_HILL_SLOPE 45.3, PBLUC_R_SQUARED 0.241, read-out: LUCIFERASE INFECTION ASSAY - IC50) turned out to be 8.55 µM.

For the compound `Cc1cc(NC(=O)CNC(c2ccc(C3CCCCC3)cc2)C(C)C)n(C2CCS(=O)(=O)C2)n1` (configuration not stated), the IC90 stood at 9.9 µM. Besides, the IC50 (PBLUC_HILL_SLOPE 35.5, PBLUC_R_SQUARED 0.454, read-out: LUCIFERASE INFECTION ASSAY - IC50) turned out to be 9.31 µM.

For the compound `Cc1cccc(C(=O)OC(C)C(=O)Nc2sccc2C#N)c1N` (configuration not stated), the 90% effect concentration (IC90) is greater than 10 µM. Also, where the note is “PBLUC_HILL_SLOPE 38.2, PBLUC_R_SQUARED 0.283, read-out: LUCIFERASE INFECTION ASSAY - IC50”, the IC50 worked out at 9.97 µM.

For the compound `Cc1nc2ccccc2n1CCNC(=O)c1ccc(Cl)cc1NC(=O)c1cccs1`, the concentration for an effect of 90% (IC90) is 4.77 µM. Where the note is “PBLUC_HILL_SLOPE 48.3, PBLUC_R_SQUARED 0.528, read-out: LUCIFERASE INFECTION ASSAY - IC50”, the IC50 amounted to 4.56 µM.

With `CN1N=C2c3ccccc3CCCC2C1c1ccc(C(C)(C)C)cc1` (configuration not stated), the IC90 is 3.51 µM. Besides, under “PBLUC_HILL_SLOPE 38, PBLUC_R_SQUARED 0.372, read-out: LUCIFERASE INFECTION ASSAY - IC50”, the IC50 is 3.31 µM.

Take `CN(C)CCNC(=O)c1ccc(-c2cnc3c(Nc4cccc(C(F)(F)F)c4)nccn23)cc1`: the IC90 was greater than 7.04 µM. In addition, the IC50 (PBLUC_HILL_SLOPE 63.8, PBLUC_R_SQUARED 0.339, read-out: LUCIFERASE INFECTION ASSAY - IC50) was determined as 6.95 µM.

For the compound `CCOc1ccccc1NC(=O)c1nc(-c2ccccc2)n(-c2ccccc2)n1`, the IC90 was determined as 3.4 µM. Besides, where the note is “PBLUC_HILL_SLOPE 61.7, PBLUC_R_SQUARED 0.143, read-out: LUCIFERASE INFECTION ASSAY - IC50”, the IC50 was found to be 3.28 µM.

In the case of `Cc1[nH]c(-c2ccccn2)nc(=O)c1CC(=O)NC1CCCCCCC1`, the IC90 was 1.71 µM. Moreover, where the note is “PBLUC_HILL_SLOPE 61.7, PBLUC_R_SQUARED 0.378, read-out: LUCIFERASE INFECTION ASSAY - IC50”, the IC50 stood at 1.65 µM.
